Test results reported in publication PMC8151276, “An Integrated Approach toward NanoBRET Tracers for Analysis of GPCR Ligand Engagement” (Molecules, 2021).

Biological target: T1, GRM7 (Homo sapiens, UniProt Q14831)
T1 construct: purchased Promega (in-house HiBiT-GPCR construct library, NanoBRET)
Experiment: NanoBRET screen HiBiT-GRM7 in HEK293
Format: binding
Experimental: Each tracer candidate was screened across the entire library of HiBiT-GPCR constructs using NanoBRET as the detection modality. As depicted in Figure 4A, the specificity of interactions was evaluated through decrease in BRET due to competitive displacement of a bound tracer by excess parental compound. Each tracer was analyzed for binding to each HiBiT-GPCR fusion in the absence and in the presence of competing parental compound. Briefly, HEK293 cells were transfected with HiBiT-GPCR constructs diluted into promoterless DNA to reduce expression and maximize translocation to the cell surface. Each tracer candidate was then screened at concentrations of 1 μM and 0.1 μM across cells expressing these fusions. Cells were treated for 1.5 h with tracer either alone or in the presence of 20 μM competing parental compound (i.e., control). BRET was measured upon addition of purified LgBiT and subsequent complementation with HiBiT genetically fused to a GPCR. The specificity of interactions was assessed through a decrease in BRET signal due to competitive displacement of the bound tracer. To further gauge the robustness of these interactions, the fold response over the control (i.e., BRETtracer/BRETcontrol) was calculated. We chose a 1.5-fold response, which translates to ≥7-fold signal over noise as the minimal threshold required to score an interaction as positive.
HiBiT-GPCR DNA constructs were diluted in 10 mM Tris pH 8 to a final concentration of 0.01 μg/μL, arrayed in 96-well plates and stored at −20 °C. For transfection, HEK293 cells were suspended in Opti-MEM (without phenol red) supplemented with 2% fetal bovine serum (Seradigm) and 100 units/mL penicillin–streptomycin (Gibco) at a final concentration of 220,000 cells/mL and dispensed into white 96-well plates at 90 μL/well. Subsequent transfections and screens were carried using an Agilent Bravo Automated Liquid Handling Platform. First, the 96-well HiBiT DNA arrays were diluted 25-fold in Opti-MEM (without serum or phenol red) to a final concentration of 0.0004 μg/μL and 20 μL of the diluted DNAs were transferred into new 96-well plates. Next, promoterless carrier DNA (1 μg/μL) was diluted 25-fold (0.04 μg/μL) and then dispensed into the diluted arrays at 20 μL/well. Following brief mixing, Viafect transfection reagent (Promega) diluted 16-fold into Opti-MEM was dispensed into the plates at 40 μL/well. After mixing by pipetting, plates were incubated for 10 min on the pipetting station deck. The DNA-transfection reagent complexes were then added to plates containing cells. To facilitate the screen, 10 μL of DNA-transfection reagent complexes were added in duplicates to the top 4 and bottom 4 rows, resulting in two identical 48-well arrays per plate. Plates with transfected cells were incubated for 18–20 h at 37 °C/5% CO2. A screen of each tracer across the entire library using two different concentrations requires duplicate plates of transfected cells. Depending on the number of tracers being screened, transfections can be scaled up using the same ratios. The next day, for each tracer, four 20× screening solutions in tracer dilution buffer (Promega) were prepared: two duplicates at final concentration of 20 μM and two duplicates at a final concentration of 2 μM. […] The four resulting solutions were diluted 4-fold in Opti-MEM without serum or phenol red to generate 5× solutions (5 µM and 0.5 µM tracer +/− 100 μM competing compound). To screen the library, a BioTek MultiFlo FX liquid dispenser was used to dispense 22.5 µL of tracer solution to the top 4 rows and 22.5 µL tracer + competing compound solution to the 4 bottom rows. Plates were briefly mixed on an orbital shaker and incubated for 1.5 h at room temperature. […] Plates were briefly mixed on an orbital shaker and incubated for 15 min to allow complementation.

T1 sequence (Q14831 35-915): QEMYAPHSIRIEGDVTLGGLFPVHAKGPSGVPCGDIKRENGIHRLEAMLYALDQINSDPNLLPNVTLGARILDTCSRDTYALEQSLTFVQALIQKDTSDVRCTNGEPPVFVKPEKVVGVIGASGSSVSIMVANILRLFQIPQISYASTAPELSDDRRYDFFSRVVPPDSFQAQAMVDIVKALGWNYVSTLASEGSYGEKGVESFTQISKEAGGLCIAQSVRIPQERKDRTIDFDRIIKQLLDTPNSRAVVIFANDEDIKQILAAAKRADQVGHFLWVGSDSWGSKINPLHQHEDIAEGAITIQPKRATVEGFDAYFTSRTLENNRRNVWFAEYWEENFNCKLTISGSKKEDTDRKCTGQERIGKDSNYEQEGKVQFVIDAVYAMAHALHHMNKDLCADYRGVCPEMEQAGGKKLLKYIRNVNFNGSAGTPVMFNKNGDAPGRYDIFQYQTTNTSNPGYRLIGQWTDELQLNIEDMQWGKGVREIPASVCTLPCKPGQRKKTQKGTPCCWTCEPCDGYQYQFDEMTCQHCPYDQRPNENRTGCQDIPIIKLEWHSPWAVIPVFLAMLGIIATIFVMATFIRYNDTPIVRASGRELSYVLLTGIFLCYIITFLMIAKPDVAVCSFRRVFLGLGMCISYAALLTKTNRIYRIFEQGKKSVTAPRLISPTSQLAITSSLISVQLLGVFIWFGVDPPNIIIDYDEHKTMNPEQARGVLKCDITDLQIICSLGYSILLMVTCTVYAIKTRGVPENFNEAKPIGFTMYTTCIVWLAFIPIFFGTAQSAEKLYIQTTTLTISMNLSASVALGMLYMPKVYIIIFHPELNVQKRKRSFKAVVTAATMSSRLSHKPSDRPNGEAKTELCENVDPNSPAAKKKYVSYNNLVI

Row | Structure (SMILES) | NanoBRET Fold Response (GRM7, tracer 0.1μM) | NanoBRET Fold Response (GRM7, tracer 1μM) | further results
1 | CCOC(=O)c1cc(C#N)c(N2CCC(C(=O)NS(=O)(=O)Cc3ccccc3/C=C/C(=O)NCCNC(=O)CCc3ccc4n3[B-](F)(F)[N+]3=C(c5ccc[nH]5)C=CC3=C4)CC2)nc1C [AZD1283-1-NB590] |  |  | NanoBRET Fold Response (GRM7, 0.1μM): 0.98; NanoBRET Fold Response (GRM7, 1μM): 1.05
2 | N#CN=C(NCCCOc1cccc(CN2CCCCC2)c1)NCCNC(=O)CCOCCOCCOCCOCCNC(=O)CCc1ccc2n1[B-](F)(F)[N+]1=C(c3ccc[nH]3)C=CC1=C2 [Aminopotentidine-2-NB590] | 0.98 | 1.05 | 
3 | CN(C)CCC=C1c2ccccc2CCc2ccc(C(=O)NCCNC(=O)CCOCCOCCOCCOCCNC(=O)CCc3ccc4n3[B-](F)(F)[N+]3=C(c5ccc[nH]5)C=CC3=C4)cc21 [Amitriptyline-b-2-NB590] | 1.09 | 1.00 | 
4 | COc1ccc2c(n1)c(CCNC(C)=O)cn2CCNC(=O)CCc1ccc2n1[B-](F)(F)[N+]1=C(c3ccc[nH]3)C=CC1=C2 [Azamelatonin-1-NB590] |  |  | NanoBRET Fold Response (0.1μM tracer): 1.10; NanoBRET Fold Response (1μM tracer): 1.16
5 | COc1ccc2[nH]c(-c3ccc(CNC(=O)CCOCCOCCOCCOCCNC(=O)CCc4ccc5n4[B-](F)(F)[N+]4=C(c6ccc[nH]6)C=CC4=C5)cc3)c(CCNC(C)=O)c2n1 [AzomelatoninICO9-2-NB590] |  |  | NanoBRET Fold Response (0.1μM tracer): 1.03; NanoBRET Fold Response (1μM tracer): 1.08
6 | O=C(CCOCCOCCOCCOCCNC(=O)CCc1ccc2n1[B-](F)(F)[N+]1=C(c3ccc[nH]3)C=CC1=C2)NCCCN1CCN(C2=Nc3cc(Cl)ccc3Nc3ccccc32)CC1 [Clozapine-a-2-NB590] |  |  | NanoBRET Fold Response (GRM7, 0.1μM tracer): 0.95; NanoBRET Fold Response (GRM7, 1μM tracer): 0.92
7 | CN1CCN(C2=Nc3cc(Cl)ccc3Nc3ccc(CNC(=O)CCOCCOCCOCCOCCNC(=O)CCc4ccc5n4[B-](F)(F)[N+]4=C(c6ccc[nH]6)C=CC4=C5)cc32)CC1 [Clozapine-b-2-NB590] |  |  | NanoBRET Fold Response (GRM7, 0.1μM tracer): 1.04; NanoBRET Fold Response (GRM7, 1μM tracer): 0.93
8 | CN1CCN(C2=Nc3cc(Cl)ccc3N(CC(=O)NCCOCCOCCOCCOCCNC(=O)CCc3ccc4n3[B-](F)(F)[N+]3=C(c5ccc[nH]5)C=CC3=C4)c3ccccc32)CC1 [Clozapine-c-2-NB590] |  |  | NanoBRET Fold Response (GRM7, 0.1μM tracer): 1.00; NanoBRET Fold Response (GRM7, 1μM tracer): 1.03
9 | O=C(CCOCCOCCOCCOCCNC(=O)CCc1ccc2n1[B-](F)(F)[N+]1=C(c3ccc[nH]3)C=CC1=C2)NCCCN1CCN(C2=Nc3ccccc3Oc3ccc(Cl)cc32)CC1 [Loxapine-a-2-NB590] | 1.07 | 1.12 | 
10 | COc1ccccc1N1CCN(CCCCN2C(=O)c3ccc(CNC(=O)CCOCCOCCOCCOCCNC(=O)CCc4ccc5n4[B-](F)(F)[N+]4=C(c6ccc[nH]6)C=CC4=C5)cc3C2=O)CC1 [NAN-190-2-NB590] | 1.00 |  | 
11 | COc1ccccc1N1CCN(CCCCN2C(=O)c3ccc(CNC(=O)CCOCCNC(=O)c4ccc(CNC(=O)CCc5ccc6n5[B-](F)(F)[N+]5=C(c7ccc[nH]7)C=CC5=C6)cc4)cc3C2=O)CC1 [NAN-190-3-NB590] | 1.01 | 0.95 | 
12 | O=C(CCc1ccc2n1[B-](F)(F)[N+]1=C(c3ccc[nH]3)C=CC1=C2)NCc1ccc(C(=O)NCCOCCC(=O)N[C@@H]2CC[C@@]3(O)[C@H]4Cc5ccc(O)c6c5[C@@]3(CCN4CC3CC3)[C@H]2O6)cc1 [Naltrexone-3-NB590] | 1.01 | 0.93 | 
13 | Cc1cc2c(s1)Nc1ccccc1N=C2N1CCN(CCCNC(=O)CCOCCOCCOCCOCCNC(=O)CCc2ccc3n2[B-](F)(F)[N+]2=C(c4ccc[nH]4)C=CC2=C3)CC1 [Olanzapine-a-2-NB590] | 1.00 | 1.02 | 
14 | O=C(CCc1ccc2n1[B-](F)(F)[N+]1=C(c3ccc[nH]3)C=CC1=C2)NCc1ccc(C(=O)NCCOCCOCCNCC(O)COc2cccc3ccccc23)cc1 (stereo not shown) [Propranolol-3-NB590] |  |  | NanoBRET Fold Response (GRM7, 0.1μM): 1.00; NanoBRET Fold Response (GRM7, 1μM): 0.97
15 | O=C(CCc1ccc2n1[B-](F)(F)[N+]1=C(c3ccc[nH]3)C=CC1=C2)NCCOCCOCCNC(=O)OCCOCCN1CCN(C2=Nc3ccccc3Sc3ccccc32)CC1 [Quetiapine-a-2-NB590] | 1.03 | 1.05 | 
16 | Cc1nc2n(c(=O)c1CCN1CCC(c3noc4cc(F)ccc34)CC1)CCCC2OC(=O)NCCOCCOCCOCCOCCNC(=O)CCc1ccc2n1[B-](F)(F)[N+]1=C(c3ccc[nH]3)C=CC1=C2 (stereo not shown) [Risperidone-2-NB590] | 1.00 | 1.00 | 
17 | CC(C)N(CC[C@H](c1ccccc1)c1cc(CCNC(=O)CCOCCOCCOCCOCCNC(=O)CCc2ccc3n2[B-](F)(F)[N+]2=C(c4ccc[nH]4)C=CC2=C3)ccc1O)C(C)C [Tolterodine-2-NB590] | 1.18 | 0.89 | 
18 | CC(C)N(CC[C@H](c1ccccc1)c1cc(CCNC(=O)c2ccc(CNC(=O)CCc3ccc4n3[B-](F)(F)[N+]3=C(c5ccc[nH]5)C=CC3=C4)cc2)ccc1O)C(C)C [Tolterodine-BZ-NB590] | 0.99 | 1.02 | 
19 | CCCn1c(=O)c2[nH]c(-c3ccc(OCC(=O)NCCNC(=O)CCOCCNC(=O)c4ccc(CNC(=O)CCc5ccc6n5[B-](F)(F)[N+]5=C(c7ccc[nH]7)C=CC5=C6)cc4)cc3)nc2n(CCC)c1=O [XAC-3-NB590] | 1.03 | 1.07 | 
